The source of these data is US20260335251A1, “RED BLOOD CELL-HITCHHIKING IONIC LIQUID COATED NANOPARTICLES FOR CROSSING THE BLOOD BRAIN BARRIER” (University of Mississippi, priority 2022, published 2026).

Data set [1] in a line: Quantitative encapsulation of ABC (1H NMR). The following applies: for ABC encapsulated: ~1 mg/mL NPs, from an added 74.1 μg/mL, quantitative 1H NMR. In kind it is physicochemical. On the procedure:
Quantitative encapsulation of ABC (^1H NMR): PLGA and CA2HA 1:2 PLGA NPs were synthesized in deuterium oxide as described previously, and then resuspended to 500 μL (2 mg/mL) to quantitatively measure composition of the IL coating on the surface of the PLGA NPs with 20 μL Tetramethylsilane (TMS) internal quantification standard: ^1H NMR (400 MHz, D2O) δ 6.85 (dt, J=15.8, 7.0 Hz, 27H), 5.85 (dt, J=15.7, 1.5 Hz, 28H), 4.78 (d, J=1.3 Hz, 7140H), 4.09-4.02 (m, 27H), 3.81-3.71 (m, 21H), 3.64 (dd, J=11.8, 4.5 Hz, 45H), 3.60-3.47 (m, 73H), 3.25 (s, 136H), 2.72 (d, J=1.3 Hz, 14964H), 2.19 (qd, J=7.2, 1.6 Hz, 69H), 1.56-1.46 (m, 47H), 0.91 (t, J=7.4 Hz, 96H), 0.00 (s, 12H).
To break open the NPs, bare PLGA NPs and IL-PLGA NPs were first sonicated at 60° C. for 30 minutes to destroy the outer IL coating integrity, evidenced by a phase separation of cloudiness in the IL-PLGA NPs. To next dissociate the IL coating from the polymer core, all particles were vortexed at 25° C. on the highest setting for 10 minutes (in 2-minute intervals). The particles were then stored at −80° C. for 2 minutes to protect the ABC drug while inducing a bulk phase separation, and then vortexed at the highest setting for 2 min at 25° C. Lastly, to extrude the abacavir from the polymer core, all NPs were 30 kDa MWCO centrifuge-filtered for 1 hour at 4500 RPM at 40° C. Filtrate smaller than 30 kDa was collected at the bottom of the tube and stored at −20° C., concentrated (2×) with D2O and evaluated for presence of drug by ^1H NMR at 400 MHz at the highest scan rate (proton64).
As the appearance of drug peaks were very small compared to the IL, 2 μL of TMS was then used in particular to obtain a relative understanding of the size of the small emerging peaks. […] Representation of encapsulated ABC dose was then calculated: • 0.002 mL TMS (0.648 g/mL)=0.0013 g TMS • 0.0013 g TMS/88.22 g/mol TMS=0.0000146 mol TMS • 0.0000146 mol TMS (~0.03 integral ratio, 8.5 ppm & 0 ppm peak) ~4.38×10^−7 mol ABC • 4.38× 10-7 mol ABC (286.3 g/mol ABC) ~ (0.000125 g ABC/2) (ug total ~1 mg/mL) ~62.7 μg/mL ABC encapsulated

The test system of the next data set is HIV-1BaL. The experiment in a line: HIV-1 replication in human PBMCs (p24 antigen ELISA). To be noted: days 3, 7, 10 post-infection; ABC alone or in NPs p<0.0001; empty IL-coated NPs p=0.04. In kind it is cell-based, HIV-1 (in human PBMCs). On the procedure:
HIV Expression and Cytotoxicity: 3 independent batches of bare and CA2HA 1:2-coated PLGA NPs were prepared with abacavir (ABC) as above but in sterile Milli-Q water and re-suspended to 1 mg/ml with sterile 1×PBS pH 7.4. As ~60 μg/mL of drug was estimated by quantitative NMR, PBMC cells were stimulated with 10 μg/ml of PHA for 4 days. Stimulated PBMC cells were harvested at 400×g, RT for 10 min. The cells at 2×10^6 cells/mL were used for each experimental condition and infected with 1 ng/ml of HIV-1 Bal+ in presence of 3 ng/ml of IL-2 and 2 μg/ml of polybrene. PBMC cells were treated in the absence or presence of nanoparticles at 10 µM final concentration. […] The cell viability was determined by trypan blue at each harvesting day and an aliquot of condition media was saved for further analysis on p24 antigen assay. […] The p24 antigen assay was performed according to manufacture protocol on experimental condition media collected on 3, 7, 10 days post HIV-1 infection for quantification of HIV-1.
To assess the bioactivity of ART when encapsulated inside PLGA & IL-PLGA NPs, HIV-1 replication was assessed in human peripheral blood mononuclear cells (PBMCs) that were mock-infected or were infected with HIV-1BaL (1 ng/ml) for 10 days. […] Concentration of the HIV-1 capsid protein (p24, ng/ml) was assessed on days 3-, 7-, and 10 post-infection by enzyme-linked immunosorbent assay (ELISA) (FIG. 7).
Background: ELISA stands for enzyme-linked immunosorbent assay.

Data set [2] is described as follows: Abacavir detection in brain regions (1H-NMR). In kind it is in vivo, Sprague-Dawley rat. The following applies: 6 h; IL-PLGA NPs with 60 μg/mL ABC, intra-carotid; n=3/group. On the procedure: Abacavir Detection in the Brain: In parallel with DiD-NP injections, Sprague-Dawley rats injected with IL-PLGA NPs (either without cargo or with 60 μg/mL ABC, n=3) were sacrificed at 6 hours post-injection, and whole organs were processed, and frozen post-mortem as described above in Biodistribution. In order to assess to areas of biodistribution of abacavir within the brain, the following regions were sliced and homogenized in a 1:1 mixture of 1×PBS (pH 7.4) and Acetonitrile constituting a total homogenate volume of 500 μL per sample: striatum, midbrain, interbrain, cerebellum, hypothalamus, cerebral cortex, & hippocampus. […] A range of 500-600 μL of liquid filtrate was recovered across all samples, which were all delivered into clean NMR tubes and topped 10% (v/v) with D2O to be evaluated for presence of drug by ^1H NMR at 400 MHz with 90% H2O/10% D2O water suppression.
Once biodistribution was determined with DiD, a new set of healthy, 8-week-old, female, Sprague Dawley rats with in-dwelling carotid catheters received IV infusions (under the same conditions) with either empty, or ABC-encapsulated, IL-coated PLGA NPs (n=3/group). Sites of regional distribution of abacavir cargo were evaluated within the brain (at the same 6-hour endpoint). […]

The test system of another data set is red blood cells. The experiment in a line: Red blood cell hitchhiking of nanoparticles coated with the ionic liquid. It counts as cell-based. The following applies: nanoparticles coated with this ionic liquid.
Data set [3] has as its system microglia, astrocytes, endothelial cells in brain. Description: Confocal/widefield immunofluorescence of brain sections (cellular localization). It counts as in vivo, Sprague-Dawley rat. To be noted: Iba-1, GFAP, von Willebrand factor. On the procedure:
Confocal Fluorescence: Perfused and cryopreserved rat brains were sectioned using a microtome (Leica Biosystems, #CM3050S) at 20-micron thickness. The slides were washed twice with 1×PBS and permeabilized (with 0.1% Triton-X, 0.1% BSA in PBS) for 30 min at 25° C. The permeabilized slides were blocked (1% BSA, 1% normal goat serum in PBS) for an additional 30 min at 25° C. and followed by probing with primary rabbit-anti-IBal (1:200 dilution) or […] (1:250 dilution) for 90 min at 25° C. At the end of the incubation, the slides were washed 3x with PBS and followed by incubation with secondary antibodies (Texas Red Goat-anti Rabbit, 1:500 for IBa1 and Alexa 488 goat anti-mouse, 1:500 for GFP), 1 hr at 25° C. To stain cellular nuclei, Hoechst stain was used at 1:10000 dilution. All dilutions represented as (vol/vol). The slides were washed 3× with 1×PBS and mounted with antifade media and kept at 4° C. for further analysis with confocal microscopy. […]
To both qualitatively and quantitatively confirm IL-PLGA NP selectivity for cells comprising the HIV reservoir, brain sections (40 μm) collected from rats used above were co-labeled for protein markers of astrocytes (GFAP; FIG. 3B) and microglia (Iba-1; FIG. 3C) with a Hoechst nuclear counterstain (FIG. 3A). […]

Entries after “also recorded” stand apart in the source; their conditions may differ.

On to `Nc1nc(NC2CC2)c2ncn([C@H]3C=C[C@@H](CO)C3)c2n1` [ABC, abacavir], for which the “Encapsulation efficiency (EE) of ABC” value in data set [1] (ABC 2%, estimated by quantitative 1H NMR) is given as ~ 84.6%. For the same compound, the results for the ABC encapsulated in data set [1] and in data set [1] (listed as abacavir (ABC)) were ~ 62.7 μg/mL and ~ 60 μg/mL, respectively. The “HIV-1 viral replication (p24) vs HIV-infected cells” value with HIV-1BaL is “significantly attenuated viral replication”. Further, in data set [2], the “Abacavir regional brain accumulation” value is “accumulate most greatly in the cerebellum, interbrain, striatum, and midbrain regions; also recorded: lesser (but considerable) delivery to the hippocampus, cerebral cortex, and hypothalamus regions”.
In the case of `CCC/C=C/C(=O)O` [CA2HA 1:1, Choline 2-Hexenoate 1:1], the “Red blood cell hitchhiking” value with red blood cells is recorded as “successfully hitchhike red blood cells”.
As to `CCC/C=C/C(=O)O` [CA2HA 1:2, Choline 2-Hexenoate 1:2], the “Cellular localization in brain” value in data set [3] was “colocalizes with HIV reservoir cells”.
Consider `CC/C=C/CC(=O)O` [CA3HA 1:1, Choline 3-Hexenoate 1:1], for which the “Red blood cell hitchhiking” value with red blood cells is given as “successfully hitchhike red blood cells”.
The same measure, in the same setting: under `CCC/C(C)=C/C(=O)O` [CA3ME2HA 1:1, Choline Trans-3-Methyl-Trans-2-Hexenoate 1:1] stands “successfully hitchhike red blood cells”; under `CC/C(C)=C/C(=O)O` [CA3ME2PE 1:1, Choline Trans-3-Methyl-Trans-2-Pentenoate 1:1], “successfully hitchhike red blood cells”; under `CC/C=C(\C)C(=O)O` [CAGAS 1:2, Choline trans-2-Methyl-2-Pentenoate 1:2], “successfully hitchhike red blood cells”.
Still for that read-out and setting: the value for `CCCCCCC(=O)O` [CAHPA 1:1, Choline Heptanoate 1:1] was “successfully hitchhike red blood cells”.
